Key:
[1] = test system: NCI-H2591 (Mesothelioma); assay: combination Emax (second highest fraction inhibited in the dose matrix, 72 h); higher = more inhibition; extreme values may be limits of the assay
Method in brief: (§1)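 After 24 hours at 37°C and 5% CO2 in 1536-well plates, cells in DMEM/F12 or RPMI plus 10% FBS received two-drug dose matrices for 72 hours. Viability came from CellTiter-Glo 2.0 luminescence and was scaled as inhibition, anchored at 0 by vehicle wells and at 1 by blank wells. Combination Emax is taken as the second-highest inhibition in the matrix, and Bliss excess as the observed combination effect less EA + EB − EA·EB, with EA and EB the single-agent effects.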

[2] = test system: MDST8 (Colorectal Carcinoma); assay: as above
Method in brief: as §1

[3] = test system: TT2609-C02 (Thyroid Gland Carcinoma); assay: as above
Method in brief: as §1

[4] = test system: SISO (Cervical Carcinoma); assay: Bliss excess, mean over the matrix (fraction); higher = more synergy
Method in brief: as §1

[5] = test system: OS-RC-2 (Kidney Carcinoma); assay: as above
Method in brief: as §1

[6] = test system: NCI-H2066 (Squamous Cell Lung Carcinoma); assay: as above
Method in brief: as §1

[7] = test system: SK-MG-1 (Low Grade Glioma); assay: as above
Method in brief: as §1

[8] = test system: COLO-320-HSR (Colorectal Carcinoma); assay: as above
Method in brief: as §1

[9] = test system: NCI-H1581 (Non-Small Cell Lung Carcinoma); assay: as above
Method in brief: as §1

[10] = test system: VCaP (Prostate Carcinoma); assay: as above
Method in brief: as §1

[11] = test system: NCI-H2141 (Small Cell Lung Carcinoma); assay: as above
Method in brief: as §1

[12] = test system: HCC1954 (Breast Carcinoma); assay: as above
Method in brief: as §1

[13] = test system: NY (Osteosarcoma); assay: as above
Method in brief: as §1

[14] = test system: NCI-H2591 (Mesothelioma); assay: as above
Method in brief: as §1

[15] = test system: CAL-29 (Bladder Carcinoma); assay: as above
Method in brief: as §1

[16] = test system: TT (Thyroid Gland Carcinoma); assay: as above
Method in brief: as §1

[17] = test system: IGR-37 (Melanoma); assay: as above
Method in brief: as §1

[18] = test system: MDST8 (Colorectal Carcinoma); assay: as above
Method in brief: as §1

[19] = test system: CAS-1 (Glioblastoma); assay: as above
Method in brief: as §1

[20] = test system: TT2609-C02 (Thyroid Gland Carcinoma); assay: as above
Method in brief: as §1
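Wherever Bliss excess, mean over the matrix is given: after 72 h of two-drug dosing.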

| Structure (SMILES) | combination Emax [1] | combination Emax [2] | combination Emax [3] | Bliss excess [4] | Bliss excess [5] | Bliss excess [6] | Bliss excess [7] | Bliss excess [8] | Bliss excess [9] | Bliss excess [10] | Bliss excess [11] | Bliss excess [12] | Bliss excess [13] | Bliss excess [14] | Bliss excess [15] | Bliss excess [16] | Bliss excess [17] | Bliss excess [18] | Bliss excess [19] | Bliss excess [20] |
| --- | --- | --- | --- | --- | --- | --- | --- | --- | --- | --- | --- | --- | --- | --- | --- | --- | --- | --- | --- | --- |
| CC(=O)Nc1cccc(-n2c(=O)n(C3CC3)c(=O)c3c(Nc4ccc(I)cc4F)n(C)c(=O)c(C)c32)c1 [Trametinib] + Cc1nc(-c2cn3c(n2)-c2ccc(-c4cnn(C(C)(C)C(N)=O)c4)cc2OCC3)n(C(C)C)n1 [Taselisib] (first compound max 1 µM, 7x7, partner max 10 µM) | 0.543 | 0.865 | 0.821 | 0.0809 | -0.0198 | 0.0386 | 0.144 | 0.0338 | 0.243 | 0.0444 | -0.0299 | 0.0455 | 0.0847 | 0.0206 | 0.136 | 0.0288 | 0.0677 | -0.0104 | 0.0153 | 0.0909 |
| CC1(C)CCC(CN2CCN(c3ccc(C(=O)NS(=O)(=O)c4ccc(NCC5CCOCC5)c([N+](=O)[O-])c4)c(Oc4cnc5[nH]ccc5c4)c3)CC2)=C(c2ccc(Cl)cc2)C1 [Venetoclax] + C1CN(CCC1(C(=O)N[C@@H](CCO)C2=CC=C(C=C2)Cl)N)C3=NC=NC4=C3C=CN4 [Capivasertib] (first compound max 1 µM, 7x7, partner max 3 µM) | 0.174 | 0.317 | 0.139 | -0.0557 | -0.0442 | -0.0142 | -0.0649 | -0.0006 | -0.041 | -0.026 | -0.0534 | 0.0021 | 0.0029 | -0.0453 | -0.0319 | -0.103 | -0.0448 | -0.0389 | -0.0653 | -0.0391 |
| CC1(C)CCC(CN2CCN(c3ccc(C(=O)NS(=O)(=O)c4ccc(NCC5CCOCC5)c([N+](=O)[O-])c4)c(Oc4cnc5[nH]ccc5c4)c3)CC2)=C(c2ccc(Cl)cc2)C1 [Venetoclax] + C=CCn1c(=O)c2cnc(Nc3ccc(N4CCN(C)CC4)cc3)nc2n1-c1cccc(C(C)(C)O)n1 [AZD1775] (first compound max 1 µM, partner max 1 µM) | 0.279 | 0.378 | 0.639 | -0.0765 | -0.078 | -0.0598 | -0.0369 | 0.0635 | -0.009 | -0.0013 | 0.0167 | -0.0366 | 0.0137 | -0.0497 | -0.0167 | 0.0252 | 0.0267 | -0.0489 | 0.0375 | -0.0696 |
| CC1(C)CCC(CN2CCN(c3ccc(C(=O)NS(=O)(=O)c4ccc(NCC5CCOCC5)c([N+](=O)[O-])c4)c(Oc4cnc5[nH]ccc5c4)c3)CC2)=C(c2ccc(Cl)cc2)C1 [Venetoclax] + CCN(CCO)CCCOc1ccc2c(Nc3cc(CC(=O)Nc4cccc(F)c4)[nH]n3)ncnc2c1 [AZD2811] (first compound max 1 µM, 7x7, partner max 1 µM) | 0.196 | 0.306 | 0.418 | -0.0091 | -0.0484 | -0.0442 | -0.0199 | 0.0052 | -0.0024 | 0.0436 | 0.0609 | 0.0579 | -0.0304 | -0.009 | 0.0361 | -0.0834 | -0.011 | -0.0011 | -0.0052 | -0.0276 |
| CC1(C)CCC(CN2CCN(c3ccc(C(=O)NS(=O)(=O)c4ccc(NCC5CCOCC5)c([N+](=O)[O-])c4)c(Oc4cnc5[nH]ccc5c4)c3)CC2)=C(c2ccc(Cl)cc2)C1 [Venetoclax] + CN(C)CCCOc1ccc(-c2ccc3ncc4c(c3c2)n(C2CCOCC2)c(=O)n4C)cn1 [AZD0156] (first compound max 1 µM, 7x7, partner max 1 µM) | 0.161 | 0.199 | 0.154 | 0.0004 | -0.0456 | -0.0439 | -0.0527 | 0.0114 | 0.0054 | 0.032 | -0.0183 | 0.0044 | -0.0939 | -0.0202 | -0.0219 | -0.13 | -0.0039 | -0.038 | -0.0046 | -0.0351 |
| CC1(C)CCC(CN2CCN(c3ccc(C(=O)NS(=O)(=O)c4ccc(NCC5CCOCC5)c([N+](=O)[O-])c4)c(Oc4cnc5[nH]ccc5c4)c3)CC2)=C(c2ccc(Cl)cc2)C1 [Venetoclax] + COc1cc(Nc2ncc3c(n2)-c2ccc(Cl)cc2C(c2c(F)cccc2OC)=NC3)ccc1C(=O)O [Alisertib] (first compound max 1 µM, 7x7, partner max 10 µM) | 0.298 | 0.329 | 0.426 | 0.0121 | -0.0547 | 0.0077 | -0.0126 | 0.0248 | 0.0694 | 0.0574 | 0.171 | 0.0356 | -0.0009 | -0.066 | -0.0554 | -0.113 | -0.0148 | -0.0242 | -0.0341 | -0.0069 |
| CC1(C)CCC(CN2CCN(c3ccc(C(=O)NS(=O)(=O)c4ccc(NCC5CCOCC5)c([N+](=O)[O-])c4)c(Oc4cnc5[nH]ccc5c4)c3)CC2)=C(c2ccc(Cl)cc2)C1 [Venetoclax] + C[C@@H]1COCCN1C2=NC(=NC(=C2)C3(CC3)[S@](=N)(=O)C)C4=C5C=CNC5=NC=C4 [AZD6738] (first compound max 1 µM, 7x7, partner max 10 µM) | 0.329 | 0.777 | 0.317 | -0.0309 | -0.0804 | -0.0098 | -0.0553 | -0.0076 | 0.007 | -0.0174 | 0.0202 | 0.0328 | -0.0597 | -0.0595 | -0.018 | -0.0387 | 0.0453 | -0.0025 | -0.0068 | -0.0293 |
| CC1(C)CCC(CN2CCN(c3ccc(C(=O)NS(=O)(=O)c4ccc(NCC5CCOCC5)c([N+](=O)[O-])c4)c(Oc4cnc5[nH]ccc5c4)c3)CC2)=C(c2ccc(Cl)cc2)C1 [Venetoclax] + C[C@@H](Nc1cc(F)cc(F)c1)c1cc(C(=O)N(C)C)cc2c(=O)cc(N3CCOCC3)oc12 [AZD8186] (first compound max 1 µM, 7x7, partner max 3 µM) | 0.118 | 0.0955 | 0.162 | -0.0268 | -0.0629 | -0.0182 | -0.0149 | -0.0052 | 0.0121 | -0.0242 | 0.0074 | -0.0245 | 0.0226 | -0.0378 | -0.0341 | -0.0467 | -0.0335 | -0.0304 | -0.04 | -0.0251 |
| CC1(C)CCC(CN2CCN(c3ccc(C(=O)NS(=O)(=O)c4ccc(NCC5CCOCC5)c([N+](=O)[O-])c4)c(Oc4cnc5[nH]ccc5c4)c3)CC2)=C(c2ccc(Cl)cc2)C1 [Venetoclax] + Cc1cc2ncnn2cc1Nc1ncc2c(n1)n(C1CCOCC1)c(=O)n2C [AZD7648] (first compound max 1 µM, 7x7, partner max 10 µM) | 0.315 | 0.245 | 0.341 | -0.01 | -0.0584 | -0.0266 | -0.0351 | -0.0098 | 0.0081 | -0.0248 | -0.0491 | -0.0034 | 0.0011 | -0.0384 | -0.0222 | -0.0161 | 0.0149 | -0.0151 | -0.05 | -0.0014 |
| CC1(C)CCC(CN2CCN(c3ccc(C(=O)NS(=O)(=O)c4ccc(NCC5CCOCC5)c([N+](=O)[O-])c4)c(Oc4cnc5[nH]ccc5c4)c3)CC2)=C(c2ccc(Cl)cc2)C1 [Venetoclax] + Cn1cnc2c(F)c(Nc3ccc(Br)cc3Cl)c(C(=O)NOCCO)cc21 [Selumetinib] (first compound max 1 µM, 7x7, partner max 3 µM) | 0.171 | 0.646 | 0.55 | -0.0162 | -0.101 | -0.0074 | -0.0062 | -0.0062 | -0.0158 | -0.0082 | -0.0303 | 0.0025 | -0.0331 | -0.0169 | -0.0137 | -0.0799 | -0.0499 | -0.0579 | -0.035 | -0.0518 |
